Calls of active or inactive are those of the source.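 The calls were made as follows: active = AC50 no more than tenfold above the top dose tested, or full inhibition at every dose with a flat fit (cut at about 19 µM in these data); inconclusive = flat curve fit with inhibition between 30% and 70%, or poor fit; inactive = AC50 more than tenfold above the top dose tested.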
Each compound was assayed on HMLE_sh_eGFP viability, CellTiter-Glo luminescence, 72 h (assay: cytotoxicity in HMLE control line with eGFP shRNA, dose response, counter-screen for HMLE_sh_ECad selective toxicity project, cell-based, HMLE_sh_eGFP, luminescence (AID 463074);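 also: counterscreen control line to flag general toxicity for the HMLE_sh_ECad screen; potency for loss of viability as luminescence drops below DMSO wells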).

`Oc1c(Cl)cc(Cl)cc1CNc1ccc(Br)cn1` and `CN(C)CCCNc1ccc(-c2cc(Nc3cccc(Cl)c3)ncn2)cn1` are within 1.5-fold of each other in AC50: 3.68 µM for the first, 4.8 µM for the second.

First: CC(C)(C)c1cc(CSC(=S)NC2CCS(=O)(=O)C2)c(Br)c(C(C)(C)C)c1 (centres undefined)
Second: Cc1ccc(N2C(=O)C3C4C=CC(CC4)C3C2=O)cc1Br (centres undefined)
The AC50 of the first is 2.8-fold higher: 3.8 µM for the first, 1.38 µM for the second.

First: Cc1ccc(NS(=O)(=O)c2cc3c4c(cccc4c2)C(=O)NC3=O)cc1C
Second: Cc1ccc(S(=O)(=O)Nc2ccc(NC(=O)Nc3cccc(C(F)(F)F)c3)cc2)cc1
The AC50 of the first is 2.6-fold higher: 6.49 µM for the first, 2.51 µM for the second.

Compared with `Clc1cc2cccnc2c2ncccc12`, `CCCc1cc(-c2nc(-c3ccc(Cl)cc3)cs2)ccn1` is 3.7-fold higher in AC50: 3.56 µM for the first, 13 µM for the second.

Going from `O=C1c2cccc3cccc(c23)C(=O)N1CCN1CCN(CC(O)COc2ccc3ccccc3c2)CC1` (centres undefined) to `O=C(Nc1nc(-c2cccc3ccccc23)cs1)c1ccc2c(c1)S(=O)(=O)c1ccccc1C2=O`, the AC50 rises from 6.81 µM to 11.3 µM (1.7-fold).

`Cc1oc(CC(C)C)cc1C(=O)Nc1cccc2ccccc12` and `Cc1cc(N=Nc2ccc3ccccc3c2)ccc1O` are within 1.5-fold of each other in AC50: 5.98 µM for the first, 6.83 µM for the second.

`COc1ccc(-c2sc3ccccc3c2C#CCCO)cc1` and `COc1ccc(-c2sc3ccccc3c2C#Cc2cncn2C)cc1` are within 1.5-fold of each other in AC50: 6.5 µM for the first, 4.83 µM for the second.

Going from `NCC(c1ccc(Cl)cc1Cl)c1c[nH]c2ccccc12` (centres undefined) to `Cc1cccc(NC(=S)NCC(C)CSc2ccc(Cl)cc2)c1` (centres undefined), the AC50 falls from 11.9 µM to 7.05 µM (1.7-fold).

Compared with `CCN(c1ccccc1)c1nc(C#N)nc(N(CC)c2ccccc2)n1`, `Cn1cccc1-c1nc2ccccc2n1Cc1ccccc1` is 1.9-fold higher in AC50: 7.07 µM for the first, 13.6 µM for the second.

First: Cc1nc(NC(=O)CC(C)C)sc1-c1csc(Nc2ccc(Cl)cc2Cl)n1
Second: CCCCCCSc1nsc(NC(=O)CC(C)C)n1
The AC50 of the first is 3.9-fold lower: 2.38 µM for the first, 9.2 µM for the second.

Going from `Cc1sc(-n2c(C)cc(/C=C3\SC(=S)NC3=O)c2C)c(C#N)c1C` to `Cc1cc(Nc2cccc([N+](=O)[O-])c2)n2c(nc3ccccc32)c1C#N`, the AC50 rises from 4.72 µM to 9.61 µM (2-fold).

`O=C(c1ccc(C#CC2(O)CCCCC2)cc1)N1CCN(C(c2ccccc2)c2ccccc2)CC1` and `CCOc1ccc(C(=O)CCC(=O)N2CCN(c3ccc(O)cc3)CC2)cc1` are within 1.5-fold of each other in AC50: 2.52 µM for the first, 2.49 µM for the second.

Compared with `COc1cccc(NP(=O)(Oc2ccccc2)Oc2ccccc2)c1`, `C[C@@H]1CC=C[C@H]2[C@H]1C(=O)N(Cc1ccccc1)[C@H]2c1ccc2ccccc2c1` is 2.3-fold lower in AC50: 15.1 µM for the first, 6.67 µM for the second.

Going from `O=C(NCCc1ccccc1)c1cc(-c2ccccc2)c(N2CCOCC2)s1` to `CC(C)(C)c1cc(NCc2ccccn2)n2ncc(-c3ccccc3)c2n1`, the AC50 rises from 3.61 µM to 6.85 µM (1.9-fold).

First: COc1cc(OC)c2cc(C(=O)N/N=C/c3cccc(OC)c3O)[nH]c2c1
Second: COc1ccc(CCCC(=O)N/N=C/c2cccc(OC)c2O)cc1C
The AC50 of the first is 1.9-fold higher: 6.08 µM for the first, 3.13 µM for the second.

First: Cc1ccc2c(c1)c1ncn(CCC3=CCCCC3)c(=O)c1n2C
Second: CCCCCc1cc(=O)oc2c(C(CCN3CCCCC3)c3ccc(OC)cc3)c(OC)cc(OC)c12 (centres undefined)
The AC50 of the first is 6.9-fold lower: 1.09 µM for the first, 7.47 µM for the second.

`CC(C)=CCOc1ccc([C@@H]2COc3c(ccc4c3C=CC(C)(C)O4)C2)c(O)c1` and `CC(C)=CCCC1(C)C=Cc2c(ccc3c2[nH]c2cc(O)c(C)cc23)O1` (centres undefined) are within 1.5-fold of each other in AC50: 3.04 µM for the first, 3.58 µM for the second.

`CCCN(CCC)CCNC(=O)c1cc2c(-c3ccc(Cl)cc3)nn(C)c2s1` and `CCCCNc1c(-c2ccc(OC)c(SC(C)CC)c2)nc2ccc(C)cn12` (centres undefined) are within 1.5-fold of each other in AC50: 5.1 µM for the first, 6.78 µM for the second.

Compared with `O=C(Nc1ncc(S(=O)(=O)c2ccc([N+](=O)[O-])cc2)s1)c1ccc2ccccc2c1`, `COC(=O)Nc1ccc(S(=O)(=O)N2CCCc3ccccc32)cc1` is 1.6-fold lower in AC50: 3.61 µM for the first, 2.21 µM for the second.

Compared with `CCOCCCNC(=O)/C(C#N)=C/c1ccc([N+](=O)[O-])o1`, `COc1ccc(/C=C/C(=O)c2ccc([N+](=O)[O-])o2)cc1` is 2.9-fold lower in AC50: 8.21 µM for the first, 2.87 µM for the second.

`O=C(Nc1cccc(NC(=O)c2ccc([N+](=O)[O-])o2)c1)c1ccco1` and `O=C(COCC(=O)Nc1cccc(C(F)(F)F)c1)Nc1cccc(C(F)(F)F)c1` are within 1.5-fold of each other in AC50: 7.23 µM for the first, 7.59 µM for the second.

Going from `O=C(Nc1ccc(S(=O)(=O)N2CCOCC2)cc1)c1cc(-c2cc(Cl)ccc2O)n[nH]1` to `CCCCC[C@@H]1C=C(C(=O)O)[C@H](c2ccc(Cl)c(Cl)c2)N1S(=O)(=O)c1ccc(C)cc1`, the AC50 rises from 2.18 µM to 5.05 µM (2.3-fold).

Going from `COc1ccccc1C1=NOC(COc2ccc3c(C)cc(=O)oc3c2)C1` (centres undefined) to `COc1ccc(C(=O)c2ccc(OC)cc2OC)cc1`, the AC50 rises from 0.288 µM to 5.49 µM (19-fold).

`Cc1c(C2(O)CCCCC2)[nH]c2cc(C(F)(F)F)ccc12` and `CC(=O)Oc1ccc(C(=O)Nc2ccc(C3(C#N)CCCC3)cc2)cc1` are within 1.5-fold of each other in AC50: 5.83 µM for the first, 8.24 µM for the second.

Going from `Cc1cc(C)c2nc(NNC(=O)c3cc(-c4cccs4)nc4ccccc34)sc2c1` to `O=C1C=C(c2cccs2)C[C@H](c2ccccc2)[C@H]1n1nnc([N+](=O)[O-])n1`, the AC50 falls from 2.95 µM to 0.274 µM (11-fold).

Compared with `CCc1ccc2[nH]c3nc(N/N=C/c4cccc(O)c4)nnc3c2c1`, `Cc1ccc(C(=O)N2N=C(c3ccc(Br)cc3)CC2c2ccccc2O)cc1` (centres undefined) is higher in AC50: under 0.16 µM for the first, 3.54 µM for the second.

In the case of `O=c1c2ccccc2nc(COc2ccccc2)n1/N=C/c1cc([N+](=O)[O-])ccc1O`, the AC50 is reported as > 19.5 µM (inactive).
In the case of `COc1ccc(OC)c(NC(=O)NNC(=O)COc2ccc(-c3ccccc3)cc2)c1`, the AC50 is reported as > 19.5 µM (inactive).

Reference: PubChem BioAssay AID463074 (Broad Institute, 2010)
